The test system of one series is keratinocytes. The conditions noted are these: cited from earlier work.
The conditions of series [1]: cited from earlier work.
Series [2] can be described thus: Parallel artificial membrane permeability assay (PAMPA) with suspended lipid bilayers. It counts as in vitro ADME, human. The conditions noted are these: 0.1 mg/mL amphotericin B. On the procedure: “Parallel artificial membrane permeability assay” (PAMPA) is a method that determines the permeability of substances from a donor compartment, through a lipid-infused artificial membrane into an acceptor compartment. A multi-well microtiter plate is used for the donor, and a membrane/acceptor compartment is placed on top. The whole assembly is referred to in the heterogeneous membrane art as a “sandwich.” Initially, the drug is added to the donor compartment, and the acceptor compartment is drug-free. After an incubation period, which may include stirring, the sandwich is separated, and the drug is measured in each compartment. Techniques including but not limited to absorbance measurements allow calculation of the drug that remains in the membrane.
Using a parallel artificial permeability assay (PAMPA) with suspended lipid bilayers, polyvinylidene difluoride (PVDF) 96-well multiscreen filter plates ([…]) and transport receiver plates (Millipore-Sigma, Burlington, MA, USA), the inventors investigate DEHP, amphotericin B, and amBisome® diffusion from a donor compartment, through the porous membrane treated with lipid, to an acceptor compartment. The maximum absorbance for DEHP, amphotericin B, and amBisome® was measured using a plate reader and determined to be 280 nm, 340 nm, and 320 nm, respectively. […]
A general note: In PAMPA a lipid-coated filter parts donor from acceptor wells.

On to `CNC(=O)Oc1cccc2c1OC(C)(C)C2` [Carbofuran, carbofuran], for which the toxicity against keratinocytes entry in the series on keratinocytes is “toxic”. On to `CCCCC(CC)COC(=O)c1ccccc1C(=O)OCC(CC)CCCC` (centres unmarked) [DEHP, di(2-ethylhexyl) phthalate], for which, in series [1] (higher concentrations of phthalates), the risk for miscarriage entry is listed as “increases the risk for miscarriage”. Moreover, in series [1] (women exposed to high concentrations), the “more likely to lose a pregnancy compared to women with lower levels” value is on record as 60%. With `C[C@@H]1[C@H](O)[C@@H](C)/C=C/C=C/C=C/C=C/C=C/C=C/C=C/[C@H](O[C@@H]2O[C@H](C)[C@@H](O)[C@H](N)[C@@H]2O)C[C@@H]2O[C@](O)(C[C@@H](O)C[C@@H](O)[C@H](O)CC[C@@H](O)C[C@@H](O)CC(=O)O[C@H]1C)C[C@H](O)[C@H]2C(=O)O` [amphotericin B], the figures for the “interaction with suspended trophoblast bilayers compared to amBisome®” value in series [2] and in series [2] (listed as Amphotericin B) were “interacts less” and “interacted more”, respectively.

The values above are taken from patent publication US12195755B2, “Placental lipid bilayer for cell-free molecular interaction studies” (priority 2019, dated 2025).
